Source: US4275164A, “Process and nutrient medium for growing microorganism” (priority 1979, dated 1981)

System: creatinine iminohydrolase
Experiment: Creatinine iminohydrolase activity, Large-scale Enzyme Production (Procedure 3; GDH assay)
Type: cell-based, ATCC 31546 (tentatively Flavobacterium filamentosum)
Settings: Procedure No. 3; glucose 1.0 wt% added, or control 0.0 wt%
Protocol: (§1) 0.2 ml of an enzyme solution and 0.4 ml of cell suspension were added to 1.4 ml of 0.05 M tris(hydroxymethyl)aminomethane (tris) buffer, pH 8.5, and 10^-3 M (ethylenedinitrilo)tetraacetic acid, dipotassium salt (K2 EDTA). The aforementioned enzyme solution contained per ml of deionized water: 2.5 mg lysozyme, 1 mg bovine pancreatic deoxyribonuclease, and 1 mg bovine pancreatic ribonuclease. The amount of cell suspension was adjusted to give a final optical density of about 1.0, and the final volume was made to 2.0 ml with tris buffer. The suspension was shaken in a water bath at 37° C. for 20 minutes. The cell debris was removed by centrifugation at 27,000 xg in a refrigerated centrifuge, and the supernatant was assayed for enzyme activity as described in Procedure 5 below.
To determine the creatinine iminohydrolase activity described in the Examples, a L-glutamic dehydrogenase, "GDH", assay method was employed. In the GDH assay method, production of ammonia from creatinine, which represents the activity of a creatinine iminohydrolase enzyme preparation,is measured using NADPH (nicotinamide-adenine dinucleotride phosphate, reduced form) in a GDH-catalyzed reaction as follows: […]

Question: `OC[C@H]1OC(O)[C@H](O)[C@@H](O)[C@@H]1O` (stereo partly drawn) [Glucose] was tested. Which “Creatinine Iminohydrolase Activity” value did it give?
Answer: 720 U/liter

Question: And the “Creatinine Iminohydrolase Activity % of Control” value?
Answer: 134 % of Control

System: creatinine iminohydrolase
Experiment: Creatinine iminohydrolase activity, Small-scale Enzyme Production (Procedure 2; GDH assay)
Type: cell-based, ATCC 31546 (tentatively Flavobacterium filamentosum)
Settings: Procedure No. 2; glucose 1.0 wt% added, or control 0.0 wt%
Protocol: (§2) A fresh sample of culture grown for two days on Medium No. 1 slants as described in Procedure 1 above was obtained. From this slant, a loopful of culture was inoculated into 25 ml of a microbial growth medium of the type employed in the present invention contained in a 250 ml Erlenmeyer flask. The microbial growth medium employed consisted of Tryp-Soy Broth, referred to hereinabove. Following inoculation of the culture into the Erlenmeyer flask, the flask was shaken at 200 rpm at 30° C. for eight hours to produce good cellular growth without lysis of the microbial cells. Thereafter, a sample of the contents of the flask was microscopically inspected for culture purity and then aseptically centrifuged at 15,000 xg in a refrigerated centrifuge (available from DuPont Instruments, Newton, CT) for 15 minutes to separate the cells from the Tryp-Soy Broth. The supernatant containing the Tryp-Soy Broth was discarded, and the solid material containing the precipitated microbial cells was then re-suspendedin a volume of sterile distilled water equal to that present before centrifugation. 2 ml of this latter suspension was then used as an inoculum for a 250 ml Erlenmeyer flask containing 25 ml of a production medium to obtain further cell growth and to promote enzyme production by the microorganism. The specific composition of the production medium was varied as described in the following examples. However, in each case, once the microorganism was transferred as a 2-ml inoculum to the flask containing the particular production medium of interest, the flask was shaken at 30° C., 200 rpm for 10 hours. Thereafter, samples of the culture were withdrawn, diluted and dry-cell weight was determined. In addition, a 2.5 ml aliquot of the culture was centrifuged at 15,000 xg in a refrigerated centrifuge to separate the cells from the production medium. The supernatant containing the production medium was discarded. The precipitated cells were disrupted as in Procedure 4 below, and enzyme activity was assayed as described in Procedure 5 below.
as §1
To determine the creatinine iminohydrolase activity described in the Examples, a L-glutamic dehydrogenase, "GDH", assay method was employed. In the GDH assay method, production of ammonia from creatinine, which represents the activity of a creatinine iminohydrolase enzyme preparation,is measured using NADPH (nicotinamide-adenine dinucleotride phosphate, reduced form) in a GDH-catalyzed reaction as follows:
Creatinine is hydrolyzed to ammonia via the unknown activity of a creatinine iminohydrolase sample, and the resultant ammonia reacts with the reagent α-ketoglutaric acid in the presence of GDH as catalyst to produce glutamic acid. The latter reaction catalyzed by GDH uses the NADPH oxidation reaction (NADPH→NADP), the disappearance of the NADPH absorption peak at 340 nm providing the spectroscopically detectable means for monitoring the assay. That is, the rate of NADPH disappearance measures the rate of glutamic acid production which, in turn, measures the rate of ammonia production.

Question: `OC[C@H]1OC(O)[C@H](O)[C@@H](O)[C@@H]1O` (stereo partly drawn) [Glucose] was tested. Which “Creatinine Iminohydrolase Activity % of Control” value did it give?
Answer: 135 % of Control

Same assay, conditions: carbon source

Question: For `CC(=O)O` [Acetic Acid], which “creatinine iminohydrolase yield of microbial cells (in words)” value (“creatinine iminohydrolase yield” below) is on record?
Answer: yielding only small amounts of creatinine iminohydrolase

Question: Which “creatinine iminohydrolase yield” value does the source give for `N[C@@H](CC(=O)O)C(=O)O` [Aspartic Acid] here?
Answer: yielding only small amounts of creatinine iminohydrolase

Question: For `N[C@@H](CCC(=O)O)C(=O)O` [Glutamic Acid], which “creatinine iminohydrolase yield” value is on record?
Answer: yielding only small amounts of creatinine iminohydrolase

Question: How did the “creatinine iminohydrolase yield” value turn out when `OCC(O)CO` [Glycerol] was run?
Answer: yielding only small amounts of creatinine iminohydrolase

Question: `NCC(=O)O` [Glycine] was tested. Which “creatinine iminohydrolase yield” value did it give?
Answer: yielding only small amounts of creatinine iminohydrolase

Question: `OC[C@H]1O[C@@](CO)(O[C@H]2O[C@H](CO)[C@@H](O)[C@H](O)[C@H]2O)[C@@H](O)[C@@H]1O` [Sucrose] was tested. Which “creatinine iminohydrolase yield” value did it give?
Answer: yielding only small amounts of creatinine iminohydrolase

Same assay, conditions: carbon source at optimum concentration; control 1.0 wt% fumaric acid

Question: `C[C@H](N)C(=O)O` [Alanine] was tested. Which “Creatinine Iminohydrolase Activity % of Control” value did it give?
Answer: 35 % of Control

Question: How did the “Creatinine Iminohydrolase Activity % of Control” value turn out when `O=C(O)CC(O)(CC(=O)O)C(=O)O` [Citric Acid] was run?
Answer: 71 % of Control

Question: `O=C(O)/C=C/C(=O)O` [Fumaric Acid, Fumaric acid] was tested. Which “Creatinine Iminohydrolase Activity % of Control” value did it give?
Answer: 100 % of Control

Question: For `OC[C@H]1OC(O)[C@H](O)[C@@H](O)[C@@H]1O` (stereo partly drawn) [Glucose], which “Creatinine Iminohydrolase Activity % of Control” value is on record?
Answer: 51 % of Control

Question: For `O=C(O)CCC(=O)C(=O)O` [Ketoglutaric Acid, α-Ketoglutaric acid], which “Creatinine Iminohydrolase Activity % of Control” value is on record?
Answer: 205 % of Control

Question: How did the “Creatinine Iminohydrolase Activity % of Control” value turn out when `CC(O)C(=O)O` (stereo not drawn) [Lactic Acid] was run?
Answer: 8 % of Control

Question: `O=C(O)CC(O)C(=O)O` (stereo not drawn) [Malic Acid] was tested. Which “Creatinine Iminohydrolase Activity % of Control” value did it give?
Answer: 100 % of Control

Question: How did the “Creatinine Iminohydrolase Activity % of Control” value turn out when `CC(=O)C(=O)O` [Pyruvic Acid] was run?
Answer: 105 % of Control

Question: How did the “Creatinine Iminohydrolase Activity % of Control” value turn out when `O=C(O)CCC(=O)O` [Succinic Acid] was run?
Answer: 49 % of Control

Same assay, conditions: carbon source, Example 2

Question: With `CC(=O)O` [Acetic Acid] as the molecule, how does the “growth of the culture and enzyme production (in words)” value (from here on “growth”) read?
Answer: did not support the growth of the culture or produce a detectable amount of enzyme

Question: For `N[C@@H](CC(=O)O)C(=O)O` [Aspartic Acid], which “growth” value is on record?
Answer: the culture grew well but these sources repressed enzyme synthesis

Question: For `O=C(O)CC(O)(CC(=O)O)C(=O)O` [Citric Acid], which “growth” value is on record?
Answer: acceptable levels of microbial growth and enzyme production

Question: For `O=C(O)/C=C/C(=O)O` [Fumaric Acid, Fumaric acid], which “growth” value is on record?
Answer: good enzyme production and good growth of the microorganism

Question: How did the “growth” value turn out when `OC[C@H]1OC(O)[C@H](O)[C@@H](O)[C@@H]1O` (stereo partly drawn) [Glucose] was run?
Answer: acceptable levels of microbial growth and enzyme production

Question: `N[C@@H](CCC(=O)O)C(=O)O` [Glutamic Acid] was tested. Which “growth” value did it give?
Answer: the culture grew well but these sources repressed enzyme synthesis

Question: Which “growth” value does the source give for `OCC(O)CO` [Glycerol] here?
Answer: did not support the growth of the culture or produce a detectable amount of enzyme

Question: `NCC(=O)O` [Glycine] was tested. Which “growth” value did it give?
Answer: did not support the growth of the culture or produce a detectable amount of enzyme

Question: `O=C(O)CCC(=O)C(=O)O` [Ketoglutaric Acid, α-Ketoglutaric acid] was tested. Which “growth” value did it give?
Answer: good growth of the microorganism and produced more than twice as much enzyme as did the fumaric acid control

Question: `CC(O)C(=O)O` (stereo not drawn) [Lactic Acid] was tested. Which “growth” value did it give?
Answer: acceptable levels of microbial growth and enzyme production

Question: For `O=C(O)CC(O)C(=O)O` (stereo not drawn) [Malic Acid], which “growth” value is on record?
Answer: acceptable levels of microbial growth and enzyme production

Question: With `CC(=O)C(=O)O` [Pyruvic Acid] as the molecule, how does the “growth” value read?
Answer: supported good enzyme production although somewhat lower growth of the microorganism was obtained

Question: `O=C(O)CCC(=O)O` [Succinic Acid] was tested. Which “growth” value did it give?
Answer: acceptable levels of microbial growth and enzyme production

Question: For `OC[C@H]1O[C@@](CO)(O[C@H]2O[C@H](CO)[C@@H](O)[C@H](O)[C@H]2O)[C@@H](O)[C@@H]1O` [Sucrose], which “growth” value is on record?
Answer: did not support the growth of the culture or produce a detectable amount of enzyme

Same assay, conditions: concentration which produced the highest creatinine iminohydrolase activity; Table II

Question: For `CC(=O)O` [Acetic Acid], which “Optimum Concentration (carbon source)” value is on record?
Answer: 0.1 Wt. %

Question: For `C[C@H](N)C(=O)O` [Alanine], which “Optimum Concentration (carbon source)” value is on record?
Answer: 1.0 Wt. %

Question: With `N[C@@H](CC(=O)O)C(=O)O` [Aspartic Acid] as the molecule, how does the “Optimum Concentration (carbon source)” value read?
Answer: 1.0 Wt. %

Question: For `O=C(O)CC(O)(CC(=O)O)C(=O)O` [Citric Acid], which “Optimum Concentration (carbon source)” value is on record?
Answer: 1.0 Wt. %

Question: `O=C(O)/C=C/C(=O)O` [Fumaric Acid, Fumaric acid] was tested. Which “Optimum Concentration (carbon source)” value did it give?
Answer: 1.0 Wt. %

Question: For `OC[C@H]1OC(O)[C@H](O)[C@@H](O)[C@@H]1O` (stereo partly drawn) [Glucose], which “Optimum Concentration (carbon source)” value is on record?
Answer: 1.0 Wt. %

Question: With `N[C@@H](CCC(=O)O)C(=O)O` [Glutamic Acid] as the molecule, how does the “Optimum Concentration (carbon source)” value read?
Answer: 1.0 Wt. %

Question: `OCC(O)CO` [Glycerol] was tested. Which “Optimum Concentration (carbon source)” value did it give?
Answer: 0.5 Wt. %

Question: How did the “Optimum Concentration (carbon source)” value turn out when `NCC(=O)O` [Glycine] was run?
Answer: 0.5 Wt. %

Question: How did the “Optimum Concentration (carbon source)” value turn out when `O=C(O)CCC(=O)C(=O)O` [Ketoglutaric Acid, α-Ketoglutaric acid] was run?
Answer: 1.0 Wt. %

Question: Which “Optimum Concentration (carbon source)” value does the source give for `CC(O)C(=O)O` (stereo not drawn) [Lactic Acid] here?
Answer: 0.5 Wt. %

Question: How did the “Optimum Concentration (carbon source)” value turn out when `O=C(O)CC(O)C(=O)O` (stereo not drawn) [Malic Acid] was run?
Answer: 1.0 Wt. %

Question: `CC(=O)C(=O)O` [Pyruvic Acid] was tested. Which “Optimum Concentration (carbon source)” value did it give?
Answer: 0.5 Wt. %

Question: `O=C(O)CCC(=O)O` [Succinic Acid] was tested. Which “Optimum Concentration (carbon source)” value did it give?
Answer: 1.0 Wt. %

Question: With `OC[C@H]1O[C@@](CO)(O[C@H]2O[C@H](CO)[C@@H](O)[C@H](O)[C@H]2O)[C@@H](O)[C@@H]1O` [Sucrose] as the molecule, how does the “Optimum Concentration (carbon source)” value read?
Answer: 0.5 Wt. %

Same assay, conditions: fumaric acid as carbon source and creatinine varied simultaneously; Example 3

Question: Which optimum concentration does the source give for `CN1CC(=O)NC1=N` [Creatinine] here?
Answer: 0.5%

Question: With `O=C(O)/C=C/C(=O)O` [Fumaric Acid, Fumaric acid] as the molecule, how does the optimum concentration read?
Answer: 1.0%

System: microorganism ATCC 31546
Experiment: Dry cell weight, Small-scale Enzyme Production (Procedure 2)
Type: cell-based, tentatively Flavobacterium filamentosum (ATCC 31546)
Settings: Procedure No. 2; glucose 1.0 wt% added, or control 0.0 wt%
Protocol: as §2, with “The specific composition of the production medium was varied as described in the following examples. However, in each case, once the microorganism was transferred as a 2-ml inoculum to the flask containing the particular production medium of interest, the flask was shaken at 30° C., 200 rpm for 10 hours.” left out, “In addition, a 2.5 ml aliquot of the culture was centrifuged at 15,000 xg in a refrigerated centrifuge to separate the cells from the production medium. The supernatant containing the production medium was discarded. The precipitated cells were disrupted as in Procedure 4 below, and enzyme activity was assayed as described in Procedure 5 below.” left out

Question: `OC[C@H]1OC(O)[C@H](O)[C@@H](O)[C@@H]1O` (stereo partly drawn) [Glucose] was tested. Which “Dry Cell Weight” value did it give?
Answer: 3.31 g/L

System: microorganism ATCC 31546
Experiment: Dry cell weight / growth, Large-scale Enzyme Production (Procedure 3)
Type: cell-based, tentatively Flavobacterium filamentosum (ATCC 31546)
Settings: Procedure No. 3; glucose 1.0 wt% added, or control 0.0 wt%
Protocol: Large-scale enzyme production was carried out using a 150-liter fermentor as follows:
First, following the same steps described in Procedure 2 above, a fresh sample of the microorganism ATCC 31546 culture which had been grown for two days on Medium No. 1 slants was transferred into 25 ml of microbial growth medium contained in a 250-ml Erlenmeyer flask. The microbial growth medium was the same as that described in Procedure 2 above. The first stage of inoculum growth in the microbial growth medium was carried out by shaking the flask at 200 rpm, 25° C. for 12 hours. A sample of the contents of the flask was thereafter microscopically inspected for culture purity. Thereafter, in the second stage of inoculum growth in the microbial growth medium, the contents of two 250-ml Erlenmeyer flasks containing first-stage culture were transferred aseptically to a 14-liter fermentor containing 10 liters of sterilized microbial growth medium having the composition described in Procedure 2 above and also containing 0.01 wt% of a polyglycol anti-foam agent sold under the tradename Polyglycol P-2000 by Dow Chemicals, Midland, MI. […] At this point, a sufficient quantity of cells was available to form an inoculum for the 150-liter fermentor. […] Dissolved oxygen concentration and pH were monitored continuously throughout the 12-hour period. […]

Question: With `OC[C@H]1OC(O)[C@H](O)[C@@H](O)[C@@H]1O` (stereo partly drawn) [Glucose] as the molecule, how does the “Dry Cell Weight” value read?
Answer: 3.92 g/L
